In patent publication US20250375455A1 (priority 2022, published 2025):
Values after ≈ are worked out from the molar mass of the structure shown. Where a name gives a salt, the structure may show the parent alone. Read-outs that look alike come from different tables or passages of the source.

Columns and labels:
Assay in all cases: microbe, parasite or virus in culture
Maf-lineage5 = assay type: cell-based, Mycobacterium africanum; conditions: for direct inhibition of growth: Maf-lineage5, in-vitro, 5, 10 and 50 μM, over 20 days
Maf-lineage6 = assay type: cell-based, Mycobacterium africanum; conditions: for direct inhibition of growth: Maf-lineage6, in-vitro, 5, 10 and 50 μM, over 20 days; for MIC: Mycobacterium tuberculosis
Mtb-lineage4 = assay type: cell-based, Mycobacterium tuberculosis; conditions: for direct inhibition of growth: Mtb-lineage4, in-vitro, 5, 10 and 50 μM, over 20 days
M. bovis = assay type: cell-based, Mycobacterium bovis; conditions: for MIC: Mycobacterium tuberculosis variant bovis
Mtb-lineage2 = assay type: cell-based, Mycobacterium tuberculosis; conditions: for direct inhibition of growth: Mtb-lineage2, in-vitro, 5, 10 and 50 μM, over 20 days; for IC50 / MIC: Mycobacterium tuberculosis

Question: What does the source list for `C#Cc1cccc(Nc2ncnc3cc(OCCOC)c(OCCOC)cc23)c1` [Erlotinib]?
Answer: direct inhibition of growth (Maf-lineage5): directly inhibit growth; direct inhibition of growth (Maf-lineage6): directly inhibit growth; direct inhibition of growth (Mtb-lineage4): directly inhibit growth; direct inhibition of growth (M. bovis): directly inhibit growth; direct inhibition of growth (Mtb-lineage2): directly inhibit growth; IC50 (Mtb-lineage2; 360 h, Mtb-lineage2, Day 15): 16.3 µM; MIC (Mtb-lineage2; 360 h, Mtb-lineage2, Day 15, read-out: MIC): 33 µM (≈ 13 µg/mL); IC50 (Mtb-lineage2; 384 h, Mtb-lineage2, Day 16): 10.1 µM; MIC (Mtb-lineage2; 384 h, Mtb-lineage2, Day 16, read-out: MIC): ~1.07 µM (≈ 0.423 µg/mL); IC50 (Mtb-lineage2; 408 h, Mtb-lineage2, Day 17): 8.65 µM; MIC (Mtb-lineage2; 408 h, Mtb-lineage2, Day 17, read-out: MIC): 41 µM (≈ 16.1 µg/mL); IC50 (Mtb-lineage2; 456 h, Mtb-lineage2, Day 19): 6.79 µM; MIC (Mtb-lineage2; 456 h, Mtb-lineage2, Day 19, read-out: MIC): 49.4 µM (≈ 19.4 µg/mL); IC50 (Mtb-lineage2; 480 h, Mtb-lineage2, Day 20): 6.19 µM; IC50 (Mtb-lineage2; […], Mtb-lineage2, Day 18): 7.61 µM; MIC (Mtb-lineage2; […], Mtb-lineage2, Day 18, read-out: MIC): 43.6 µM (≈ 17.1 µg/mL)

Question: How did the MIC (Mtb-lineage2; 240 h) turn out when `COc1cc2ncnc(Nc3ccc(F)c(Cl)c3)c2cc1OCCCN1CCOCC1` [Gefitinib] was run?
Answer: Its MIC is 54.3 µM (≈ 24.3 µg/mL).

Question: And the MIC (Mtb-lineage2; 288 h)?
Answer: The MIC was 54.3 µM (≈ 24.3 µg/mL).

Question: And the MIC (Mtb-lineage2; 312 h)?
Answer: Its MIC is 52.2 µM (≈ 23.3 µg/mL).

Question: What about the MIC (Mtb-lineage2; 336 h) of the same molecule?
Answer: Its MIC is 54.8 µM (≈ 24.5 µg/mL).

Question: What about the MIC (Mtb-lineage2; […]) of the same molecule?
Answer: Its MIC is 52.7 µM (≈ 23.6 µg/mL).

Question: What does the source list for `Cc1ccc(NC(=O)c2ccc(CN3CCN(C)CC3)cc2)cc1Nc1nccc(-c2cccnc2)n1` [Imatinib, Imatinib mesylate]?
Answer: MIC (Maf-lineage5; 240 h, Maf-lineage5, Day 10): 58.1 µM; MIC (Maf-lineage5; 288 h, Maf-lineage5, Day 12): 60.8 µM; MIC (Maf-lineage5; 312 h, Maf-lineage5, Day 13): 62 µM; MIC (Maf-lineage5; 336 h, Maf-lineage5, Day 14): 63.4 µM; MIC (Maf-lineage5; 360 h, Maf-lineage5, Day 15): 65.2 µM; susceptibility to direct inhibition (Maf-lineage5; Example 4, Maf-lineage5, concentrations up to 200 μM): more susceptible to direct inhibition; MIC (Maf-lineage5; Maf-lineage5, Day 11): 59.5 µM; direct inhibition of growth (Maf-lineage5): not; response to drug (Maf-lineage6): didn't respond; susceptibility to direct inhibition (Maf-lineage6; Example 4, Maf-lineage6 (c), concentrations up to 200 μM): more susceptible to direct inhibition; direct inhibition of growth (Maf-lineage6): not; MIC (Maf-lineage6; 240 h, Maf-lineage6 (a), Day 10): ~0.743 µM; MIC (Maf-lineage6; 240 h, Maf-lineage6 (b), Day 10): ~9090 µM; MIC (Maf-lineage6; 240 h, Maf-lineage6 (c), Day 10): 101 µM; MIC (Maf-lineage6; 240 h, Maf-lineage6 (d), Day 10): ~46400 µM; MIC (Maf-lineage6; 288 h, Maf-lineage6 (a), Day 12): ~0.594 µM; MIC (Maf-lineage6; 288 h, Maf-lineage6 (b), Day 12): 1460 µM; MIC (Maf-lineage6; 288 h, Maf-lineage6 (c), Day 12): 100 µM; MIC (Maf-lineage6; 312 h, Maf-lineage6 (a), Day 13): ~0.562 µM; MIC (Maf-lineage6; 312 h, Maf-lineage6 (b), Day 13): 1260 µM; MIC (Maf-lineage6; 312 h, Maf-lineage6 (c), Day 13): 100 µM; MIC (Maf-lineage6; 336 h, Maf-lineage6 (a), Day 14): ~0.541 µM; MIC (Maf-lineage6; 336 h, Maf-lineage6 (b), Day 14): 1520 µM; MIC (Maf-lineage6; 336 h, Maf-lineage6 (c), Day 14): 100 µM; MIC (Maf-lineage6; 360 h, Maf-lineage6 (a), Day 15): ~0.515 µM; MIC (Maf-lineage6; 360 h, Maf-lineage6 (b), Day 15): ~3590 µM; MIC (Maf-lineage6; 360 h, Maf-lineage6 (c), Day 15): 100 µM; MIC (Maf-lineage6; […], Maf-lineage6 (a), Day 11): ~0.721 µM; MIC (Maf-lineage6; […], Maf-lineage6 (b), Day 11): ~2390 µM; MIC (Maf-lineage6; […], Maf-lineage6 (c), Day 11): 101 µM; susceptibility to direct inhibition (Mtb-lineage4; Example 4, Mtb-lineage4, concentrations up to 200 μM): more susceptible to direct inhibition; MIC (Mtb-lineage4; Mtb-lineage4, Day 11): Unstable; MIC (Mtb-lineage4; Mtb-lineage4, Day 12): Unstable; MIC (Mtb-lineage4; Mtb-lineage4, Day 13): Unstable; MIC (Mtb-lineage4; Mtb-lineage4, Day 14): Unstable; direct inhibition of growth (Mtb-lineage4): not; MIC (Mtb-lineage4; Mycobacterium tuberculosis, 240 h, Mtb-lineage4, Day 10, read-out: MIC): 98.8 µM; direct inhibition of growth (M. bovis): directly restricted the growth; susceptibility to direct inhibition (M. bovis): more susceptible to direct inhibition; MIC (M. bovis; 240 h): 8.39 µM; MIC (M. bovis; 288 h): 21.1 µM; MIC (M. bovis; 312 h): 25.6 µM; MIC (M. bovis; 336 h): 30.3 µM; MIC (M. bovis; 360 h): 35.2 µM; MIC (M. bovis; […]): 16.3 µM; susceptibility to direct inhibition (Mtb-lineage2; Example 4, Mtb-lineage2, concentrations up to 200 μM): more susceptible to direct inhibition; direct inhibition of growth (Mtb-lineage2): directly restricted the growth; MIC (Mtb-lineage2; 240 h, Mtb-lineage2 (a), Day 10, read-out: MIC): 56 µM; MIC (Mtb-lineage2; 240 h, Mtb-lineage2 (b), Day 10, read-out: MIC): 60.4 µM; MIC (Mtb-lineage2; 240 h, Mtb-lineage2, Day 10, read-out: MIC): 56 µM; MIC (Mtb-lineage2; 288 h, Mtb-lineage2 (a), Day 12, read-out: MIC): 56.7 µM; MIC (Mtb-lineage2; 288 h, Mtb-lineage2 (b), Day 12, read-out: MIC): 60.7 µM; MIC (Mtb-lineage2; 288 h, Mtb-lineage2, Day 12, read-out: MIC): 56.7 µM; MIC (Mtb-lineage2; 312 h, Mtb-lineage2 (a), Day 13, read-out: MIC): 57.1 µM; MIC (Mtb-lineage2; 312 h, Mtb-lineage2 (b), Day 13, read-out: MIC): 60.5 µM; MIC (Mtb-lineage2; 312 h, Mtb-lineage2, Day 13, read-out: MIC): 57.1 µM; MIC (Mtb-lineage2; 336 h, Mtb-lineage2 (a), Day 14, read-out: MIC): 57.4 µM; MIC (Mtb-lineage2; 336 h, Mtb-lineage2 (b), Day 14, read-out: MIC): 85.4 µM; MIC (Mtb-lineage2; 336 h, Mtb-lineage2, Day 14, read-out: MIC): 57.4 µM; MIC (Mtb-lineage2; 360 h, Mtb-lineage2 (a), Day 15, read-out: MIC): 57.8 µM; MIC (Mtb-lineage2; 360 h, Mtb-lineage2 (b), Day 15, read-out: MIC): 86.7 µM; MIC (Mtb-lineage2; […], Mtb-lineage2 (a), Day 11, read-out: MIC): 56.4 µM; MIC (Mtb-lineage2; […], Mtb-lineage2 (b), Day 11, read-out: MIC): 61 µM; MIC (Mtb-lineage2; […], Mtb-lineage2, Day 11, read-out: MIC): 56.4 µM
